Assay results from PMC9967538, “Cytotoxic Effect of Phenylethanoid Glycosides Isolated from Plantago lanceolata L” (Life, 2023).
Like-named read-outs stand apart in the source and are kept apart here. Each block holds one compound with its values, some of them ahead of it.

Columns and labels:
[1] = tested on: C6 rat glioblastoma cell line; design: method as in PMID 30664150; details: C6 cells, administered separately, cited from earlier work
[2] = tested on: MCF-7 breast cancer cells; design: method as in PMID 34719192; details: cell counting kit 8, cited from earlier work
[3] = tested on: MDA-MB 231 cells; design: method as in PMID 34719192; details: cell counting kit 8, cited from earlier work
[4] = tested on: HeLa (human epithelial carcinoma); design: method as in PMID 8593444; details: cited from earlier work
[5] = tested on: pre-senescent normal human diploid fibroblasts; design: method as in PMID 29505920; details: 3-week treatment; cited from earlier work
[6] = format: cell-based; details: human
[7] = tested on: glioblastoma cell line T98G; design: method as in PMID 36551708; details: cited from earlier work
[8] = tested on: S-180 (sarcoma); design: method as in PMID 8593444; details: cited from earlier work
[9] = MTT cell proliferation assay, OVCAR-3; format: cell-based, human; details: human
[10] = tested on: OVCAR-3 ovarian cancer cell line; assay: MTT cell proliferation assay, OVCAR-3; format: cell-based, human; details: for IC50: Homo sapiens, MTT, estimation ± SE
[11] = tested on: lymphocytic leukemia cells P-388; design: method as in PMID 2380718; details: cited from earlier work
[12] = tested on: Caco-2 colorectal adenocarcinoma cell line; assay: MTT cell proliferation assay, Caco-2; format: cell-based; details: Homo sapiens, estimation ± SE
[13] = tested on: protein kinase C (PKC); details: cited from earlier work
[14] = MTT cell proliferation assay, MCF-7; format: cell-based, human; details: human
[15] = tested on: MCF-7 breast adenocarcinoma cell line; assay: MTT cell proliferation assay, MCF-7; format: cell-based, human; details: for IC50: Homo sapiens, MCF7, MTT, estimation ± SE
[16] = tested on: d R Lh-84 cells (rat liver cancer); design: method as in PMID 8593444; details: cited from earlier work
[17] = MTT cell proliferation assay, HepG2; format: cell-based, human; details: human
[18] = tested on: HepG2 hepatocarcinoma cell line; assay: MTT cell proliferation assay, HepG2; format: cell-based, human; details: Homo sapiens, MTT, estimation ± SE
[19] = tested on: MDA-MB-231 breast adenocarcinoma cell line; assay: MTT cell proliferation assay, MDA-MB-231; format: cell-based, human; details: for IC50: Homo sapiens, MTT, estimation ± SE
[20] = MTT cell proliferation assay, MDA-MB-231; format: cell-based, human; details: human
[21] = MTT cell proliferation assay, MCF-12A; format: cell-based, human; details: human
[22] = tested on: MCF-12A nontumorigenic mammary epithelial cell line; assay: MTT cell proliferation assay, MCF-12A; format: cell-based, human; details: Homo sapiens, MCF-12A
[23] = tested on: P-388/D1 (mouse lymphoid tumor); design: method as in PMID 8593444; details: cited from earlier work
[24] = tested on: HL-60 promyelocytic leukemia cells; design: method as in PMID 9477175; details: HL-60 cell death; cited from earlier work

SMILES: Cn1nnc2c(C(N)=O)ncn2c1=O [temozolomide, reference compound]
cell viability ([1]; 5 mM): ca. 52%

IC50 ([10]; OVCAR-3, 24 h): 314 ± 3.52 µM | IC50 ([10]; OVCAR-3, 48 h): 232 ± 5.08 µM | IC50 ([10]; OVCAR-3, 72 h): 163 ± 3.41 µM | IC50 ([12]; Caco-2, 24 h, values exceeding 500 μM determined with CompuSyn from dose-response curve estimation): > 500 µM | IC50 ([12]; Caco-2, 48 h): 467 ± 8.71 µM | IC50 ([12]; Caco-2, 72 h): 280 ± 6.13 µM | IC50 ([15]; MCF-7, 24 h): 219.1 ± 1.4 µM | IC50 ([15]; MCF-7, 48 h): 154 ± 2.71 µM | IC50 ([15]; MCF-7, 72 h): 113 ± 2.81 µM | IC50 ([18]; HepG2, 24 h): 261 ± 3.52 µM | IC50 ([18]; HepG2, 48 h): 220 ± 2.65 µM | IC50 ([18]; HepG2, 72 h): 173.8 ± 1.59 µM | IC50 ([19]; MDA-MB-231, 24 h): 312 ± 3.28 µM | IC50 ([19]; MDA-MB-231, 48 h): 245 ± 4.96 µM | IC50 ([19]; MDA-MB-231, 72 h): 200 ± 2.45 µM
SMILES: C[C@@H]1O[C@@H](O[C@@H]2[C@@H](O)[C@H](OCCc3ccc(O)c(O)c3)O[C@H](CO)[C@H]2OC(=O)/C=C/c2ccc(O)c(O)c2)[C@H](O)[C@H](O)[C@H]1O [Acteoside]
IC50 ([2]; MCF-7, 24 h exposure): 0.127 µM | IC50 ([2]; MCF-7, 48 h exposure): 0.217 µM | IC50 ([2]; MCF-7, 72 h exposure): 0.283 µM | IC50 ([3]; MDA-MB 231, 24 h exposure): 0.16 µM | IC50 ([3]; MDA-MB 231, 48 h exposure): 0.258 µM | IC50 ([3]; MDA-MB 231, 72 h exposure): 0.256 µM | IC50 ([4]; HeLa (human epithelial carcinoma), first value listed, converted, read-out: IC50): > 320 µM | IC50 ([4]; HeLa (human epithelial carcinoma), first value listed): > 200 µg/mL | IC50 ([4]; HeLa cells, second value listed, converted, read-out: IC50): 12.5 µM | cytotoxic effect (in words) [5]: no cytotoxic effect | viability at 200 µM [6]: ≤ 30% | IC50 [7]: 85 µM | IC50 ([8]; S-180, converted from µg/mL, read-out: IC50): 47.4 µM | IC50 ([8]; S-180): 29.6 µg/mL | viability at 200 µM [9]: ≤ 30% | toxic effect (in words) ([10]; OVCAR-3, 200 μM, after 24 h of treatment): highly toxic effect | cell viability ([1]; 50 µM): ~80% | ED50 ([11]; lymphocytic leukemia cells P-388, converted from µg/mL): 4.16 µM | ED50 ([11]; lymphocytic leukemia cells P-388): 2.6 µg/mL | inhibition of protein kinase C (in words) [13]: inhibitor | viability at 200 µM [14]: ≤ 30% | toxic effect (in words) ([15]; MCF-7, 200 μM, after 24 h of treatment): highly toxic effect | IC50 [16]: 61.98 µg/mL | IC50 ([16]; converted from µg/mL, read-out: IC50): 99.2 µM | viability at 200 µM [17]: ≤ 30% | toxic effect (in words) ([19]; MDA-MB-231, 200 μM, after 24 h of treatment): highly toxic effect | viability at 200 µM [20]: ≤ 30% | viability at 400 µM [21]: < 30% | IC50 ([22]; 24 h, MTT, estimation ± SE, read-out: IC50): 362.3 ± 1.86 µM | IC50 ([22]; 48 h, MTT, estimation ± SE, read-out: IC50): 347 ± 3.67 µM | IC50 ([22]; 72 h, MTT, estimation ± SE, read-out: IC50): 326 ± 3.89 µM | IC50 ([22]; time not stated, summary of Table 1, read-out: IC50 (potency against the MCF-12A line)): ~300 µM | IC50 ([23]; P-388/D1, converted from µg/mL, read-out: IC50): 354 µM | IC50 ([23]; P-388/D1): 221.0 µg/mL | IC50 [24]: 26.7 µM

SMILES: O=c1cc(-c2ccc(O)c(O)c2)oc2c([C@@H]3O[C@H](CO)[C@@H](O)[C@H](O)[C@H]3O)c(O)cc(O)c12 [orientin, reference compound]
IC50 [7]: > 100 µM
